Results on nine molecules are retold here after PubChem BioAssay (NCI).

SMILES strings stand for the structures.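 96-well plates; 48 h exposure; 5 concentrations. Endpoints by linear interpolation between flanking doses. Not reached: highest tested concentration assigned. Here, GI50 denotes the concentration required for 50% inhibition of growth. TGI denotes the concentration required for complete inhibition of growth.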

Among the test systems are A498 renal; PC-3 prostate; EKVX NSCLC; 786-0 renal; SNB-75 CNS; UO-31 renal; OVCAR-5 ovarian; COLO 205 colon; HT29 colon; MALME-3M melanoma.
Experiment in all cases: NCI-60 cell line screen, 48 h

As to `COc1cc2c(c(Br)c1N)-c1cc(Br)c(N)cc1C2=O`, the GI50 with A498 renal is greater than 61.7 µM; with PC-3 prostate it was greater than 100 µM; in the assay on EKVX NSCLC, 9.99 µM; in the assay with 786-0 renal it was greater than 100 µM; in the assay on SNB-75 CNS, 1.96 µM; with UO-31 renal, greater than 100 µM. Besides, the GI50 with OVCAR-5 ovarian is 0.0894 µM; with COLO 205 colon, greater than 87 µM; with HT29 colon, greater than 100 µM; in the assay with MALME-3M melanoma it was greater than 100 µM. Also, the TGI in the assay with A498 renal, with PC-3 prostate, in the assay on EKVX NSCLC, in the assay on 786-0 renal, in the assay with SNB-75 CNS and in the assay on UO-31 renal was greater than 100 µM in each case. For the same molecule, the TGI in the assay with OVCAR-5 ovarian, in the assay with COLO 205 colon, in the assay with HT29 colon and with MALME-3M melanoma was greater than 100 µM throughout.
`Cc1ccc2c(c1)/C(=N\N=C/c1cn(C(C)C)c3ccccc13)C(=O)N2`: the GI50 is 1.6 µM with A498 renal; 0.723 µM with PC-3 prostate; 22 µM with EKVX NSCLC; 18.6 µM in the assay on 786-0 renal; 3.2 µM in the assay with SNB-75 CNS; 1.98 µM in the assay with UO-31 renal. In addition, the GI50 is 35.1 µM with OVCAR-5 ovarian, 0.324 µM with COLO 205 colon, 2.82 µM with HT29 colon and 1.38 µM in the assay on MALME-3M melanoma. The TGI with A498 renal is greater than 100 µM; in the assay on PC-3 prostate, 45.3 µM; with EKVX NSCLC, greater than 100 µM; with 786-0 renal, greater than 100 µM; in the assay on SNB-75 CNS, greater than 100 µM; in the assay on UO-31 renal, greater than 100 µM. Further, the TGI in the assay with OVCAR-5 ovarian is greater than 100 µM; in the assay on COLO 205 colon it was 2.08 µM; in the assay on HT29 colon, greater than 100 µM; in the assay on MALME-3M melanoma, 9.81 µM.
`COc1cc2nc(-c3ccc(Cl)cc3)cc(OCCCN3CCC(O)CC3)c2cc1OC`: the GI50 is 1.53 µM in the assay on A498 renal; 2.02 µM in the assay on PC-3 prostate; 1.33 µM with EKVX NSCLC; 3.31 µM in the assay on 786-0 renal; 1.76 µM with SNB-75 CNS; 1.72 µM with UO-31 renal. The GI50 in the assay on OVCAR-5 ovarian was 1.16 µM; with COLO 205 colon, 0.532 µM; in the assay with HT29 colon, 0.7 µM; in the assay with MALME-3M melanoma, 1.89 µM. The TGI in the assay on A498 renal was 3.83 µM; in the assay on PC-3 prostate, 12.7 µM; with EKVX NSCLC, 12.9 µM; in the assay with 786-0 renal, 14.9 µM; in the assay with SNB-75 CNS it was 5.43 µM; in the assay with UO-31 renal, 5.97 µM. Moreover, the TGI is 15.6 µM in the assay with OVCAR-5 ovarian, 4.11 µM in the assay on COLO 205 colon, 3.81 µM in the assay on HT29 colon and 4.95 µM with MALME-3M melanoma.
For the molecule `COC12c3ccccc3-c3ccccc3C1[C@@H](C(=O)O)[C@H]2C(=O)O` (stereo not given in full), the TGI in the assay with A498 renal, in the assay with PC-3 prostate, in the assay on EKVX NSCLC, in the assay with 786-0 renal, in the assay with SNB-75 CNS and in the assay with UO-31 renal was greater than 10 µM throughout. In addition, the TGI with OVCAR-5 ovarian, with COLO 205 colon, in the assay on HT29 colon and in the assay on MALME-3M melanoma was greater than 10 µM each time.
As to `CCOC(=O)c1c(-c2ccccc2)[nH]c2ccccc2c1=O`, the TGI with A498 renal, in the assay on PC-3 prostate, in the assay with EKVX NSCLC, in the assay with 786-0 renal, in the assay on SNB-75 CNS and with UO-31 renal was greater than 100 µM throughout. Further, the TGI in the assay with OVCAR-5 ovarian, in the assay on COLO 205 colon, with HT29 colon and in the assay with MALME-3M melanoma was greater than 100 µM in each case.
For the molecule `COc1ccc(C2=NN(c3ccc(S(N)(=O)=O)cc3)C(c3ccc(Cl)cc3)C2)c(O)c1` (stereo not given), the GI50 in the assay on A498 renal was 3.89 µM; with PC-3 prostate it was 2.78 µM; with EKVX NSCLC it was 2.71 µM; in the assay on 786-0 renal it was 2.22 µM; in the assay with SNB-75 CNS, 5.87 µM; in the assay on UO-31 renal, 1.97 µM. Also, the GI50 with OVCAR-5 ovarian was 9.44 µM; in the assay with COLO 205 colon, 3.59 µM; in the assay on HT29 colon it was 2.83 µM; in the assay with MALME-3M melanoma it was 4.03 µM. Further, the TGI in the assay on A498 renal came to 14.5 µM; with PC-3 prostate, 14.6 µM; with EKVX NSCLC it was 10.5 µM; with 786-0 renal it was 5.15 µM; in the assay on SNB-75 CNS, 45.1 µM; in the assay on UO-31 renal, 13.5 µM. Moreover, the TGI in the assay on OVCAR-5 ovarian worked out at 29.3 µM; with COLO 205 colon, 13.3 µM; in the assay on HT29 colon, 8.68 µM; in the assay on MALME-3M melanoma it was 16.7 µM.
`C/C(=N\NC(=S)Nc1ccccc1)c1ccccn1`: the GI50 in the assay with A498 renal was 0.207 µM; with PC-3 prostate, less than 0.0171 µM; in the assay with EKVX NSCLC, 0.0691 µM; with 786-0 renal it was 0.277 µM; in the assay on SNB-75 CNS, 1.86 µM; in the assay with UO-31 renal it was 0.0565 µM. The GI50 is 0.118 µM in the assay on OVCAR-5 ovarian, 0.0119 µM in the assay with COLO 205 colon, 0.0203 µM in the assay on HT29 colon and 0.121 µM in the assay with MALME-3M melanoma. Further, the TGI came to 1.64 µM with A498 renal; 5.73 µM with PC-3 prostate; 7.38 µM in the assay on EKVX NSCLC; 1.99 µM in the assay on 786-0 renal; 11 µM in the assay on SNB-75 CNS; 2.75 µM in the assay with UO-31 renal. In addition, the TGI in the assay with OVCAR-5 ovarian was found to be 10.9 µM; with COLO 205 colon it was 1.48 µM; in the assay with HT29 colon, 2.54 µM; with MALME-3M melanoma, 5.39 µM.
Consider `O=C(Nc1ccc(Cl)cc1)C(=O)C1=C(O)c2ccccc2OC1`, for which the TGI with A498 renal, with PC-3 prostate, in the assay on EKVX NSCLC, in the assay on 786-0 renal, in the assay on SNB-75 CNS and in the assay on UO-31 renal was greater than 100 µM in each case. Further, the TGI in the assay on OVCAR-5 ovarian, in the assay with COLO 205 colon, with HT29 colon and in the assay on MALME-3M melanoma was greater than 100 µM each time.
With `C/C=C(\C)C(=O)O[C@@H]1C=CC(=O)O[C@H]1COC(=O)[C@H](C)O`, the GI50 in the assay on A498 renal is 15.2 µM; in the assay with PC-3 prostate it was 10.5 µM; in the assay with EKVX NSCLC, 19 µM; in the assay with 786-0 renal it was 9.2 µM; in the assay on SNB-75 CNS it was 10.8 µM; with UO-31 renal, 12.7 µM. Moreover, the GI50 was 15.3 µM in the assay with OVCAR-5 ovarian, 6.57 µM with COLO 205 colon, 5.93 µM in the assay with HT29 colon and 12.1 µM with MALME-3M melanoma. The TGI came to 30.4 µM with A498 renal; 31.6 µM in the assay with PC-3 prostate; 42.1 µM in the assay on EKVX NSCLC; 21.2 µM with 786-0 renal; 32 µM in the assay with SNB-75 CNS; 27.5 µM in the assay with UO-31 renal. Besides, the TGI was 31.5 µM in the assay on OVCAR-5 ovarian, 23.7 µM with COLO 205 colon, 20.9 µM in the assay with HT29 colon and 25.9 µM with MALME-3M melanoma.
